Values of other authors as cited in US20070173447A1, “METHOD FOR TREATING OSTEOPOROSIS BY INTRANASAL DELIVERY OF TERIPARATIDE WITH AN ANTI-RESORPTIVE AGENT” (Nastech Pharmaceutical Company Inc., priority 2005, published 2007).
Read-outs that look alike come from different tables or passages of the source. Ends that are not written are not given here.

Columns and labels:
[1] = intranasal, up to 500 μg per day for 7 days and up to 1,000 μg per day for 3 months
[2] = anesthetized rats
[3] = rats, intraduodenal, with 1% (w/v) saline dispersion of polycarbophil
[4] = after feeding to rats

For `CC[C@H](C)[C@H](NC(=O)[C@H](CCC(=O)O)NC(=O)[C@H](CO)NC(=O)[C@@H](NC(=O)[C@@H](N)CO)C(C)C)C(=O)N[C@@H](CCC(N)=O)C(=O)N[C@@H](CC(C)C)C(=O)N[C@@H](CCSC)C(=O)N[C@@H](Cc1cnc[nH]1)C(=O)N[C@@H](CC(N)=O)C(=O)N[C@@H](CC(C)C)C(=O)NCC(=O)N[C@@H](CCCCN)C(=O)N[C@@H](Cc1cnc[nH]1)C(=O)N[C@@H](CC(C)C)C(=O)N[C@@H](CC(N)=O)C(=O)N[C@@H](CO)C(=O)N[C@@H](CCSC)C(=O)N[C@@H](CCC(=O)O)C(=O)N[C@@H](CCCN=C(N)N)C(=O)N[C@H](C(=O)N[C@@H](CCC(=O)O)C(=O)N[C@@H](Cc1c[nH]c2ccccc12)C(=O)N[C@@H](CC(C)C)C(=O)N[C@@H](CCCN=C(N)N)C(=O)N[C@@H](CCCCN)C(=O)N[C@@H](CCCCN)C(=O)N[C@@H](CC(C)C)C(=O)N[C@@H](CCC(N)=O)C(=O)N[C@@H](CC(=O)O)C(=O)N[C@H](C(=O)N[C@@H](Cc1cnc[nH]1)C(=O)N[C@@H](CC(N)=O)C(=O)N[C@@H](Cc1ccccc1)C(=O)O)C(C)C)C(C)C` [Teriparatide, teriparatide], the safety concerns [1] is listed as “No safety concerns were noted”.
In the case of “hPTH1-31NH2 (SVSEIQLMHNLGKHLNSMERVEWLRKKLQDV-NH2; listed as Homo sapiens)”, the “restoration of bone loss” value (ovariectomized rat model) is given as “fully active”.
In the case of human growth hormone, the nasal bioavailability ([2]; with N-acetyl-L-cysteine) is given as 12.2% and the nasal bioavailability ([2]; without N-acetyl-L-cysteine) is given as 7.5%.
For “9-desglycinamide, 8-arginine vasopressin [DGAVP]”, the “bioavailability increase compared to aqueous solution without polymer” value [3] is listed as 3-5 fold.
In the case of Phaseolus vulgaris hemagglutinin, the oral bioavailability [4] is given as “more than 10%”.
In the case of “2-alkyl-4-hydroxyquinolines [pyo compound]”, the “concentration producing ciliostasis / inhibiting ciliary motility” value (ciliary motility) is given as 50 µg/mL.
